Results published in patent US10004727B2, “Composition for preventing, alleviating or treating metabolic diseases, containing amodiaquine as active ingredient” (POSTECH ACADEMY—INDUSTRY FOUNDATION, priority 2015, dated 2018).

Experiments:
[1] = target: T1, human PPAR-γ-ligand binding domain (LBD) (Homo sapiens, UniProt P37231); assay: GAL4-PPAR-γ-LBD luciferase reporter assay in BE(2)C cells; assay type: cell-based; details: various concentrations up to 50 μM, 20 hours, FIGS. 1A and 1B
T1 construct: expressed in transfected cells; host or cells: BE(2)C cells
T1 sequence (P37231 238-503 limits assumed): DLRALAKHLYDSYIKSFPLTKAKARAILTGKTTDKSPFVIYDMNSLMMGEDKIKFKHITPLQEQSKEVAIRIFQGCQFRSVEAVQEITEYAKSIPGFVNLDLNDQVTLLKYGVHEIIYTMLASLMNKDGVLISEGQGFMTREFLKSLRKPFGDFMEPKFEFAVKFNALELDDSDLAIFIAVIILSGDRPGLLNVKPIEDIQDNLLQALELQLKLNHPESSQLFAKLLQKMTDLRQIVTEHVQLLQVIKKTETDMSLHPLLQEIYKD
Procedure: (§1) To examine whether amodiaquine serves as a ligand of PPAR-γ or PPAR-α, three types of vectors were used.
(§2) The activation of luciferase expression was detected 6 hours after BE(2)C cells were transformed with a GAL4-PPAR-γ-LBD plasmid or GAL4-PPAR-α-LBD plasmid, the GAL4-luciferase vector and the β-galactosidase vector, and growing amodiaquine-treated cells for 20 hours in a 5% CO2 incubator.

[2] = tested on: high fat-induced obesity mice; assay: Intraperitoneal insulin tolerance test (IPITT) in high fat-induced obesity mice; assay type: in vivo, mouse; details: 0.5 U/kg insulin i.p.; for blood glucose concentration after 2 hours (IPITT): HFD with simultaneous substance, FIG. 7B; for time of lowest blood glucose level (IPITT): substance given after long-term HFD induction, FIG. 7C
Procedure: After 16-hour fasting, 0.5 U/kg of insulin was intraperitoneally administered to each animal in the controls and the experimental group, and a blood glucose concentration was measured every 30 minutes for 2 hours. For measurement of the blood glucose concentration, an IPITT was used.

C2C12 myotube cells = assay: Glucose uptake ([3H]2-DOG) evaluation test in C2C12 myotube cells; assay type: cell-based, mouse; details: C2C12 myotubes, 10 and 30 μM amodiaquine for 24 hours, compared with 50 μM rosiglitazone; FIG. 2
Procedure: Phosphorylation of insulin receptors occurs due to signal transduction by insulin in muscle, adipose or liver cells, and therefore when various proteins located downstream are phosphorylated, glucose uptake increases resulting in reduced blood glucose. A glucose uptake evaluation test was performed to identify whether amodiaquine is effective in diabetes. C2C12 myoblasts, which are muscle cells, were cultured in 10% […]-containing DMEM. When the cell density reached approximately 80 to 90%, the medium was replaced with fresh 2% horse serum-containing DMEM, and cell differentiation of the C2C12 myoblasts to myotubes was induced to make them completely differentiated, followed by carrying out an experiment. […] Washing was repeated three times every twenty minutes. Subsequently, 1 ml of KRP buffer was injected, a solution (0.2 mM, 0.2 μCi) prepared by dissolving unlabeled 2-DOG and [^3H]2-DOG (Amersham Pharmacia) in KRP buffer was added at 37° C. to allow treatment for exactly 10 minutes. The resulting cells were washed with 3 ml of cold phosphate buffered saline (PBS) to stop a glucose uptake reaction, further washed twice with PBS, air-dried for approximately 1 hour, and lyzed with 1 ml of 0.1% SDS by pipetting, and then 300 μl of the lysate was obtained to detect radioactivity using a liquid scintillation counter (Perkin Elmer, USA).

[3] = tested on: high fat-induced obesity mice; assay: Oral glucose tolerance test (OGTT) in high fat-induced obesity mice; assay type: in vivo, mouse; details: HFD mice with amodiaquine; 2 g/kg glucose oral after 16-hour fasting; HFD control 180.5 mg/dl; FIG. 7A
Procedure: After 16-hour fasting, 2 g/kg of glucose was orally administered to each animal in the controls and experimental group, and a blood glucose concentration was measured every 30 minutes for 2 hours. For measurement of the blood glucose concentration, an OGTT was used.

[4] = tested on: high fat-induced obesity mouse; assay: 4° C. cold test (thermal production) in high fat-induced obesity mice; assay type: in vivo; details: HFD mice, 14 weeks, amodiaquine 20 mg/kg; 4° C. for up to 6 hours; versus high fat obesity-induced mouse; FIG. 6
Procedure: To measure a thermal production capability with respect to mice fed a high fat diet for 14 weeks among the experimental animals designed in Example 5, a 4° C. cold test was performed (Spiegelman B. M. et al., Cell 92: 829-839, 1998). Hereinafter, the measurement method will be described in detail. A body temperature of mice in the high fat-induced obesity mouse groups was measured before being exposed to 4° C. and recorded as a test start temperature, and then the mice were exposed to 4° C. for up to 6 hours, followed by measuring a body temperature. The body temperature was measured using a rectal thermometer for a mouse (testo 925, Germany) A thermal production value indicated a temperature measured every hour.

[5] = tested on: liver of the high fat-induced obesity mouse; assay: Fatty liver histology (hematoxylin-eosin) in high fat-induced obesity mice; assay type: in vivo; details: HFD with amodiaquine for 14 weeks; FIG. 8
Procedure: Among the experimental animals designed in Example 5, mice in the high fat-induced obesity mouse group fed a high fat diet for 14 weeks were sacrificed by cervical spine dislocation, fixed on a dissection stand, and subjected to abdominal dissection with a scalpel to extract the liver. The extracted liver tissue was fixed in a 10% formalin solution to prevent contracted deformation. After the fixed tissue was washed with running water after 24 hours, general tissue dehydration, clearing and impregnation were performed using an automatic tissue processor (6460B, Sakura, Japan) for 14 hours, and manufacture of paraffin blocks and cooling were performed using an automated embedding device (Tissue-Tex, Japan). The manufactured paraffin blocks were continuously sliced to a thickness of 4 to 5 μm in a vertical direction of the tissue using a rotary microtome 2040 (Japan), and attached to slides after processing using a water bath and a slide warming table. The thin tissue section was stained with hematoxylin, an excessively-stained part was washed with running tap water, and then the resulting section was dipped in 1% HCl and a 70% A/C solution 3 to 5 times to stain the nuclei blue. […]

PPAR-α-LBD = target: T2, PPAR-α-LBD (Homo sapiens, UniProt Q07869); assay: GAL4-PPAR-α-LBD luciferase reporter assay in BE(2)C cells; assay type: cell-based; details: various concentrations up to 50 μM, 20 hours, FIGS. 1C and 1D
T2 construct: expressed in transfected cells; host or cells: BE(2)C cells
T2 sequence (Q07869 239-466 limits assumed): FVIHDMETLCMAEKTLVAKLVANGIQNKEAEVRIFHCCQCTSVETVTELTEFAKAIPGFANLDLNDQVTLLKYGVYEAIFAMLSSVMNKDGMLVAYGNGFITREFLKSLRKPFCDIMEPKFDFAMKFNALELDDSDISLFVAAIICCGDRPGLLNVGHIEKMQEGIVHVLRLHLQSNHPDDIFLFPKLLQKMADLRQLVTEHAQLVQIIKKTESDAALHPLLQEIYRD
Procedure: as §1, §2

KKAy mice [6] = assay: Fasting blood glucose in KKAy mice; assay type: in vivo, mouse; details: 18 mg/kg daily oral for 6 weeks, control 132.4 mg/dl
Procedure: (§3) Following one-week acclimation, 5-week-old KKAy mice purchased from Saeronbio Inc. were divided into two groups of 5.
(§4) The first group was set as a negative control by administering PBS, and the second group was treated by daily oral administration of amodiaquine at 18 mg/kg for 6 weeks.
(§5) Fasting blood glucose was measured for 6 weeks from whole blood taken from the caudal vein of each mouse 1, 2, 5 and 6 weeks after 12-hour fasting. For blood glucose measurement, a blood glucose strip (Green Cross, Gyeonggi-do, Korea) was used. […] In addition, to identify the blood glucose regulation effect, 2 g/kg of glucose was intraperitoneally injected into the mice of the control and experimental group after 16-hour fasting, and the level of blood glucose was measured every 30 minutes for 2 hours. For measurement of the blood glucose concentration, an intraperitoneal glucose tolerance test (IPGTT) was used.

[7] = Body weight of high fat-induced obesity mice; assay type: in vivo, mouse; details: C57BL/6 mice, amodiaquine 20 mg/kg
Procedure: The mice were divided into groups of 7, freely fed water and diets in a cage, and then acclimated for 1 week before an experiment. […] [table] […] An average body weight was calculated by dividing the sum of weights of 7 mice per group by the number of mice.

KKAy mice [8] = assay: Glycated hemoglobin (HbA1C) content in KKAy mice; assay type: in vivo, mouse; details: 18 mg/kg daily oral for 6 weeks, FIG. 4
Procedure: To detect a change in glycated hemoglobin content in mice by amodiaquine, after 1-week acclimation, 5-week-old KKAy mice were purchased from Saeronbio Inc. were divided into two groups of 5. Like in Example 3, the first group of mice were set as a control by administering PBS, and the second group was treated by daily oral administration of amodiaquine at 18 mg/kg for 6 weeks using a 1 ml syringe. To detect an effect of amodiaquine on reducing glycated hemoglobin content, whole blood was taken from the caudal vein of each mouse in the control and experimental group, injected into an easy A1c cartridge, and then assessed using an easy A1c analyzer (Asan Pharmaceutical Co., Ltd., Seoul, Korea). An independent group t-test was performed on the experimental group and the control to identify significance in the test results, and a statistically significant difference was shown (**p<0.005).

KKAy mice [9] = assay: Intraperitoneal glucose tolerance test (IPGTT) in KKAy mice; assay type: in vivo, mouse; details: 18 mg/kg daily oral for 6 weeks, 2 g/kg glucose i.p. after 16-hour fasting, control 293.2 mg/dl
Procedure: as §3, §4, §5

| Structure (SMILES) | PPAR-γ activity (luciferase expression) [1] | blood glucose concentration after 2 hours (IPITT) [2] | time of lowest blood glucose level (IPITT) [2] [min] | PPAR-α activity (luciferase expression) (PPAR-α-LBD) | also measured |
| --- | --- | --- | --- | --- | --- |
| Cc1cccc(Nc2cc(Cl)nc(SCC(=O)O)n2)c1C [WY-14,643] | PPAR-γ activity was not shown | maintained lower than the fasting blood glucose concentration |  |  |  |
| CCN(CC)Cc1cc(Nc2ccnc3cc(Cl)ccc23)ccc1O [amodiaquine, 4-[(7-chloroquinolin-4-yl)amino]-2-[(diethylamino)methyl]phenol] | higher concentration-dependent PPAR-γ activity | maintained lower than the fasting blood glucose concentration | 30 | high concentration-dependent PPAR-α activity | glucose uptake (C2C12 myotube cells): further increased than that in the rosiglitazone-treated group; blood glucose concentration 2 hours after glucose loading (OGTT) [3]: 139.1 mg/dL; body temperature on exposure to 4° C. (thermal production) [4]: less decreased in body temperature; liver appearance (fat accumulation, hematoxylin-eosin) [5]: almost the same appearance as that of a normal mouse; fasting blood glucose concentration (KKAy mice [6]): 100.2 mg/dL; body weight versus high fat-induced obesity mouse (prevention) ([7]; HFD with substance for 14 weeks, FIG. 5A): significantly lower than that of the high fat-induced obesity mouse; body weight versus high fat-induced obesity mouse (treatment) ([7]; substance for 7 weeks after 15-week HFD induction, rosiglitazone 50 mg/kg, FIG. 5C): significantly lower than that of the high fat-induced obesity mouse; production of glycated hemoglobin relative to the control mice (KKAy mice [8]): ~69%; blood glucose concentration 2 hours after glucose loading (IPGTT) (KKAy mice [9]): 207 mg/dL |
| CCN(CC)CCCC(C)Nc1ccnc2cc(Cl)ccc12 (stereo not drawn) [chloroquine, 7-chloro-4-(4-diethylamino-1-methylbutylamino)quinoline] | PPAR-γ activity was not shown |  |  | did not show the PPAR-α activity |  |
| CN(CCOc1ccc(CC2SC(=O)NC2=O)cc1)c1ccccn1 (stereo not drawn) [rosiglitazone] |  |  | 60 |  |  |
